Assay: BDNA-assay: HBV replication inhibition by the compounds of this invention could be determined in cells infected or transfected with HBV, or cells with stably integrated HBV, such as HepG2.2.15 cells (Sells et al. 1987). In this example, HepG2.2.15 cells were maintained in cell culture medium containing 10% fetal bovine serum (FBS), Geneticin, L-glutamine, penicillin and streptomycin. HepG2.2.15 cells could be seeded in 96-well plates at a density of 40,000 cells/well and be treated with serially diluted compounds at a final DMSO concentration of 0.5% either alone or in combination by adding drugs in a checker box format. Cells were incubated with compounds for three days, after which medium was removed and fresh medium containing compounds was added to cells and incubated for another three days. At day 6, supernatant was removed and treated with DNase at 37° C. for 60 minutes, followed by enzyme inactivation at 75° C. for 15 minutes. Encapsidated HBV DNA was released from the virions and covalently linked HBV polymerase by incubating in lysis buffer (Affymetrix QS0010) containing […] proteinase K at 50° C. for 40 minutes. HBV DNA was denatured by addition of 0.2 M NaOH and detected using a branched DNA (BDNA) QuantiGene assay kit according to manufacturer recommendation (Affymetrix). HBV DNA levels could also be quantified using qPCR, based on amplification of encapsidated HBV DNA extraction with QuickExtraction Solution (Epicentre Biotechnologies) and amplification of HBV DNA using HBV specific PCR probes that can hybridize to HBV DNA and a fluorescently labeled probe for quantitation. In addition, cell viability of HepG2.2.15 cells incubated with test compounds alone or in combination was determined by using CellTitre-Glo reagent according to the manufacturer protocol (Promega). The mean background signal from wells containing only culture medium was subtracted from all other samples, and percent inhibition at each compound concentration was calculated by normalizing to signals from HepG2.2.15 cells treated with 0.5% DMSO using equation E1.

Row | SMILES | EC50 [nM]
1 | CCC(=O)c1n[nH]c2c1CN(C(=O)Nc1cccc(Cl)c1)CC2 | < 500
2 | O=C(Nc1cccc(Cl)c1)N1CCc2[nH]nc(C(=O)N3CCCO3)c2C1 | < 500
3 | O=C(Nc1cccc(Cl)c1)N1CCc2[nH]nc(C(=O)N3CC(O)CO3)c2C1 (stereo not given) | < 1000
4 | CCON(C)C(=O)c1n[nH]c2c1CN(C(=O)Nc1cccc(Cl)c1)CC2 | < 100
5 | CCCON(C)C(=O)c1n[nH]c2c1CN(C(=O)Nc1cccc(Cl)c1)CC2 | < 500
6 | CCN(OC)C(=O)c1n[nH]c2c1CN(C(=O)Nc1cccc(Cl)c1)CC2 | < 100
7 | O=C(Nc1cccc(Cl)c1)N1CCc2[nH]nc(C(=O)N3CC(F)CO3)c2C1 (stereo not given) | < 100
8 | CON(C)C(=O)c1n[nH]c2c1CN(C(=O)Nc1cccc(Cl)c1)CC2 | < 100
9 | CN1CC(ON(C)C(=O)c2n[nH]c3c2CN(C(=O)Nc2cccc(Cl)c2)CC3)C1 | < 500
10 | CN(OC1CCC1)C(=O)c1n[nH]c2c1CN(C(=O)Nc1cccc(Cl)c1)CC2 | < 100
11 | CC(C)ON(C)C(=O)c1n[nH]c2c1CN(C(=O)Nc1cccc(Cl)c1)CC2 | < 100
12 | CON(C(=O)c1n[nH]c2c1CN(C(=O)Nc1cccc(Cl)c1)CC2)C(C)C | < 500
13 | CN(O)C(=O)c1n[nH]c2c1CN(C(=O)Nc1cccc(Cl)c1)CC2 | < 1000
14 | COCCON(C)C(=O)c1n[nH]c2c1CN(C(=O)Nc1cccc(Cl)c1)CC2 | < 500
15 | CCCC(=O)c1n[nH]c2c1CN(C(=O)Nc1cccc(Cl)c1)CC2 | < 100
16 | CN(OCCO)C(=O)c1n[nH]c2c1CN(C(=O)Nc1cccc(Cl)c1)CC2 | < 500
17 | CN(OC1CCOC1)C(=O)c1n[nH]c2c1CN(C(=O)Nc1cccc(Cl)c1)CC2 (stereo not given) | < 500
18 | CN(C)N(C)C(=O)c1n[nH]c2c1CN(C(=O)Nc1cccc(Cl)c1)CC2 | < 100
19 | CN(OCC1CC1)C(=O)c1n[nH]c2c1CN(C(=O)Nc1cccc(Cl)c1)CC2 | < 500
20 | CC(C)CON(C)C(=O)c1n[nH]c2c1CN(C(=O)Nc1cccc(Cl)c1)CC2 | < 500
